Our source for the GI50 and TGI values is PubChem BioAssay (NCI).

Test systems include A549 NSCLC; COLO 205 colon; NCI/ADR-RES ovarian; BT-549 breast; HL-60(TB) leukemia; MDA-MB-231 breast; SR leukemia; SF-268 CNS; DU-145 prostate; HT29 colon.
Common to all, as to test: inhibition of tumour cell growth, NCI panel, 48 h

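Growth conditions: 96-well plates. Treatment: test compound, 48 hours, 5 concentrations. Analysis: linear interpolation between bracketing concentrations; unreached endpoints set to highest concentration. Abbreviation: GI50, concentration required for 50% inhibition of growth. Definition used: TGI = concentration required for complete inhibition of growth.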 Where only a bound is given, the exact number is not on record here.

With `CN[C@@H](C)C(=O)N[C@H](C(=O)N1CCC[C@H]1C(=O)Nc1sc(-c2ncco2)nc1-c1ccccc1)C1CCCCC1`, the GI50 with A549 NSCLC is 80.5 µM; in the assay on COLO 205 colon, 18.7 µM; in the assay on NCI/ADR-RES ovarian it was 27.4 µM; in the assay on BT-549 breast, 0.0598 µM; in the assay on HL-60(TB) leukemia, 16.9 µM; in the assay on MDA-MB-231 breast it was 0.425 µM. Moreover, the GI50 in the assay with SR leukemia was 14 µM; in the assay on SF-268 CNS, 99.7 µM; in the assay with DU-145 prostate, over 95.8 µM; in the assay with HT29 colon, 28.6 µM. For the same compound, the TGI with A549 NSCLC was over 100 µM; with COLO 205 colon, 37.9 µM; with NCI/ADR-RES ovarian, over 83.2 µM; with BT-549 breast, 33.6 µM; in the assay with HL-60(TB) leukemia, 39.1 µM; in the assay with MDA-MB-231 breast it was 17.2 µM. The TGI in the assay with SR leukemia is 54.7 µM; in the assay with SF-268 CNS, over 100 µM; in the assay with DU-145 prostate it was over 100 µM; in the assay on HT29 colon it was 68.6 µM.
As to `O=S(=O)(c1ccc(Cl)cc1)C(Cl)(Cl)Cl`, the GI50 with A549 NSCLC was 3.46 µM; in the assay with COLO 205 colon, 3.38 µM; with NCI/ADR-RES ovarian it was 1.57 µM; in the assay with BT-549 breast it was 1.4 µM; in the assay on HL-60(TB) leukemia it was 1.8 µM; in the assay with MDA-MB-231 breast, 3.85 µM. The GI50 with SR leukemia was 0.486 µM; in the assay on SF-268 CNS it was 1.56 µM; in the assay with DU-145 prostate, 2.09 µM; with HT29 colon it was 2.85 µM. In addition, the TGI was over 50 µM with A549 NSCLC; over 53.4 µM in the assay on COLO 205 colon; over 24.5 µM in the assay with NCI/ADR-RES ovarian; 7.48 µM in the assay with BT-549 breast; 7.7 µM in the assay on HL-60(TB) leukemia; 23 µM in the assay on MDA-MB-231 breast. The TGI is 39.7 µM with SR leukemia, 20.6 µM in the assay with SF-268 CNS, 10 µM in the assay on DU-145 prostate and 22.5 µM in the assay with HT29 colon.
Turning to `COc1cc2c(cc1OCCCn1c(-c3ccccn3)nc3ccccc31)N=C[C@@H]1CCCN1C2=O`, the GI50 in the assay with A549 NSCLC is 1.87 µM; with COLO 205 colon, 2.22 µM; with NCI/ADR-RES ovarian, 2.79 µM; with BT-549 breast, 1.6 µM; in the assay on HL-60(TB) leukemia it was 4.45 µM; in the assay on MDA-MB-231 breast it was 2.5 µM. For the same compound, the GI50 in the assay on SR leukemia was 2.82 µM; in the assay with SF-268 CNS it was 3.07 µM; in the assay on DU-145 prostate, 2.72 µM; with HT29 colon it was 3.61 µM. For the same compound, the TGI in the assay with A549 NSCLC is 7.08 µM; in the assay with COLO 205 colon, 4.9 µM; with NCI/ADR-RES ovarian it was 7.31 µM; in the assay on BT-549 breast, 4.87 µM; in the assay with HL-60(TB) leukemia, over 24.6 µM; in the assay with MDA-MB-231 breast, 13.5 µM. The TGI in the assay on SR leukemia was over 20.1 µM; in the assay with SF-268 CNS, 9.79 µM; in the assay with DU-145 prostate, 6.72 µM; in the assay with HT29 colon it was over 79.6 µM.
As for `O=c1[nH]c(=O)n(C2CC(O)C(COP(=O)(OCc3ccc([N+](=O)[O-])o3)N(CCCCCl)CC(O)CO)O2)cc1F` (centres undefined), the GI50 is under 0.01 µM in the assay on A549 NSCLC; over 22.5 µM in the assay on COLO 205 colon; 0.781 µM in the assay with NCI/ADR-RES ovarian; 0.663 µM with BT-549 breast; 0.0262 µM with HL-60(TB) leukemia; over 100 µM in the assay with MDA-MB-231 breast. For the same compound, the values for the GI50 in the assay on SR leukemia, in the assay on DU-145 prostate and in the assay on HT29 colon were under 0.0269 µM, 0.176 µM and 1.66 µM, respectively. Besides, the TGI in the assay on A549 NSCLC, in the assay on COLO 205 colon, in the assay on NCI/ADR-RES ovarian, in the assay on BT-549 breast, in the assay with HL-60(TB) leukemia and in the assay with MDA-MB-231 breast was over 100 µM each time. For the same compound, the TGI is over 100 µM in the assay with SR leukemia, over 100 µM with SF-268 CNS, over 34.8 µM with DU-145 prostate and over 100 µM in the assay on HT29 colon.
In the case of `COC1C=COC2(C)Oc3c(C)c(O)c4c(c3C2=O)/C(=N/C2CCC(O)OC2C)C=C(NC(=O)/C(C)=C\C(=O)C2CC2C(O)C(C)C(O)C(C)C(OC(C)=O)C1C)C4=O` (centres undefined), the TGI in the assay on A549 NSCLC is 11.4 µM; in the assay with COLO 205 colon it was 3.38 µM; in the assay with NCI/ADR-RES ovarian, 50.4 µM; with BT-549 breast, 6.28 µM; with HL-60(TB) leukemia it was 6.32 µM; in the assay on MDA-MB-231 breast, 5.69 µM. Also, the TGI was 5.06 µM in the assay on SR leukemia, 10.5 µM with SF-268 CNS, 7.13 µM with DU-145 prostate and 2.71 µM in the assay on HT29 colon.
Regarding `OCc1ccc(N2CCCC2c2ccccc2)cc1Cl` (centres undefined), the GI50 with A549 NSCLC is 2.87 µM; with COLO 205 colon, 3.26 µM; in the assay with NCI/ADR-RES ovarian it was 3.54 µM; in the assay on BT-549 breast it was 7.12 µM; with HL-60(TB) leukemia it was 3.07 µM; in the assay with MDA-MB-231 breast, 5.58 µM. Moreover, the GI50 in the assay on SR leukemia was 3.13 µM; with SF-268 CNS it was 13.2 µM; in the assay with DU-145 prostate, 12.3 µM; in the assay on HT29 colon it was 3.37 µM. The TGI is 14.9 µM with A549 NSCLC; 11.8 µM with COLO 205 colon; 17.7 µM in the assay with NCI/ADR-RES ovarian; 18.7 µM with BT-549 breast; 11.1 µM in the assay with HL-60(TB) leukemia; 24.9 µM in the assay on MDA-MB-231 breast. In addition, the TGI in the assay on SR leukemia worked out at 17.2 µM; in the assay on SF-268 CNS, 49.5 µM; with DU-145 prostate, 30.8 µM; with HT29 colon, 14.3 µM.
With `CN(C)CCCn1c(=O)c2ccccc2c2ccccc21`, the GI50 is 6.63 µM with A549 NSCLC; 5.58 µM in the assay with COLO 205 colon; 10.9 µM in the assay with NCI/ADR-RES ovarian; 29.5 µM in the assay on BT-549 breast; 21.8 µM in the assay on HL-60(TB) leukemia; 22.3 µM in the assay on MDA-MB-231 breast. The GI50 in the assay on SR leukemia is 12.8 µM; in the assay with SF-268 CNS, 15.6 µM; with DU-145 prostate it was 18.5 µM; in the assay on HT29 colon, 5.74 µM. Further, the TGI in the assay with A549 NSCLC was 49.5 µM; in the assay with COLO 205 colon, 20.6 µM; in the assay with NCI/ADR-RES ovarian it was over 100 µM; in the assay on BT-549 breast, 73.9 µM; in the assay on HL-60(TB) leukemia it was 69.5 µM; in the assay on MDA-MB-231 breast, 62.7 µM. Also, the TGI in the assay on SR leukemia was over 100 µM; in the assay on SF-268 CNS, 41.4 µM; in the assay on DU-145 prostate, 52 µM; in the assay on HT29 colon, 33.4 µM.
Turning to `CC(=O)/C=C/c1cn(C(=O)OC(C)(C)C)c2ccc(Br)cc12`, the GI50 in the assay with A549 NSCLC was 18.8 µM; in the assay on COLO 205 colon, 19.5 µM; in the assay on NCI/ADR-RES ovarian, 17.9 µM; with BT-549 breast it was 5.87 µM; in the assay with HL-60(TB) leukemia it was 29.6 µM; in the assay on MDA-MB-231 breast, 18.9 µM. The GI50 in the assay with SR leukemia is 71.6 µM; in the assay with SF-268 CNS it was 24.1 µM; in the assay on DU-145 prostate it was 14.1 µM; in the assay with HT29 colon, 10.6 µM. The TGI in the assay on A549 NSCLC was 52.4 µM; in the assay with COLO 205 colon, 42.1 µM; with NCI/ADR-RES ovarian it was 45.4 µM; in the assay on BT-549 breast it was 26.4 µM; with HL-60(TB) leukemia it was over 100 µM; with MDA-MB-231 breast, 43.8 µM. In addition, the TGI in the assay on SR leukemia was over 100 µM; in the assay with SF-268 CNS, 97.9 µM; in the assay with DU-145 prostate, 45.1 µM; with HT29 colon, 24.8 µM.
